Values after ≈ are worked out from the molar mass of the structure shown. Active and inactive are the calls of the source. Where only a bound is given, the exact number is not on record here.

Data set [1] is described as follows: Aqueous solubility of the compound measured after 24 hrs by HPLC analysis. Format: physicochemical.
The nature of data set [2]: Hemolytic activity in sheep erythrocytes assessed as hemolysis at 128 ug/ml incubated for 1 hr by microplate reader based analysis relative to control. Format: toxicity, cell-based, Ovis aries, Erythrocyte. To be noted: at 128 µg/mL, read-out: Activity.
Data set [3] in a line: Clearance in female Sprague-Dawley rat at 20 mg/kg, po measured upto 24 hrs by LC-MS analysis. The data set is classed as ADME, organism-based. The note with it: in vivo.
The subject of data set [4] is Candida albicans. Briefly: Antimicrobial activity against Candida albicans SC5314 measured after 48 hrs by CLSI protocol based microdilution method. Format: functional.
The test system of data set [5] is Staphylococcus aureus. Briefly: In vivo antibacterial activity against methicilin-resistant Staphylococcus aureus ATCC33591 infected in BALB/c mouse skin infection model assessed as reduction in bacterial load at 10 mg/kg administered daily for 4 days. To be noted: time 4 day. Format: functional.
Data set [6] has as its system Staphylococcus aureus. Briefly: In vivo antibacterial activity against methicilin-resistant Staphylococcus aureus ATCC33591 infected in BALB/c mouse skin infection model assessed as decrease in lesion size at 5 mg/kg administered daily for 4 days (reference value: 43.4 mm2). The data set is classed as functional. To be noted: time 4 day.
Data set [7] deals with Staphylococcus aureus. Briefly: In vivo antibacterial activity against methicilin-resistant Staphylococcus aureus ATCC33591 infected in BALB/c mouse skin infection model assessed as reduction in area of injury at 20 mg/kg administered daily for 4 days by H and E staining based analysis. Format: functional, organism-based. To be noted: time 4.0 day.
In data set [8] the test system is Staphylococcus aureus. Briefly: In vivo antibacterial activity against methicilin-resistant Staphylococcus aureus ATCC33591 infected in BALB/c mouse skin infection model assessed as decrease in lesion size at 10 mg/kg administered daily for 4 days (reference value: 43.4 mm2). Format: functional. To be noted: time 4 day.
The target in data set [9] is T1, Enoyl-[acyl-carrier-protein] reductase [NADPH] FabI (Staphylococcus aureus) (UniProt Q6GI75).
T1 sequence (whole entry): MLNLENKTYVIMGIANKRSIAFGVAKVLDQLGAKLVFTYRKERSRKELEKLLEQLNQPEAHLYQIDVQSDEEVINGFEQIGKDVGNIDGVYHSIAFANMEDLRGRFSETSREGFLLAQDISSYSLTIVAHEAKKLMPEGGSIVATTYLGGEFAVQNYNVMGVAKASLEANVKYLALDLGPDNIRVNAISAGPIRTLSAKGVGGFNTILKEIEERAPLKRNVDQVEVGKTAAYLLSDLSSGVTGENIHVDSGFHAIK
Briefly: Binding affinity to N-terminal his 6 tagged Staphylococcus aureus Fabi (1 to […] residues) expressed in Escherichia coli BL21 assessed as change in melting temperature at 80 uM incubated for 20 mins in presence of NADPH by differential scanning fluorescence assay. Background: Differential scanning fluorimetry follows unfolding on heating by fluorescence.

The nature of data set [10]: Cmax in female Sprague-Dawley rat at 20 mg/kg, po measured upto 24 hrs by LC-MS analysis. The data set is classed as ADME, organism-based. The note with it: in vivo.
Data set [11] relates to Staphylococcus aureus. Briefly: In vivo antibacterial activity against methicilin-resistant Staphylococcus aureus ATCC33591 infected in BALB/c mouse skin infection model assessed as reduction in bacterial load administered daily for 4 days. Format: functional, organism-based. To be noted: dose 5-20 mg/kg, time 4.0 day.
In data set [12] the test system is Staphylococcus aureus. Briefly: In vivo antibacterial activity against methicilin-resistant Staphylococcus aureus ATCC33591 infected in BALB/c mouse skin infection model assessed as reduction in number of inflammatory cells at 20 mg/kg administered daily for 4 days by H and E staining based analysis. The data set is classed as functional, organism-based. To be noted: time 4.0 day.

In data set [13] the test system is Staphylococcus aureus. Briefly: In vivo antibacterial activity against methicilin-resistant Staphylococcus aureus ATCC33591 infected in BALB/c mouse skin infection model assessed as damaged tissue at 10 mg/kg administered daily for 4 days by H and E staining based analysis. Format: functional, organism-based. To be noted: time 4.0 day.
In data set [14] the test system is Staphylococcus aureus. Briefly: In vivo antibacterial activity against methicilin-resistant Staphylococcus aureus ATCC33591 infected in BALB/c mouse skin infection model assessed as reduction in bacterial load at 5 mg/kg administered daily for 4 days. The data set is classed as functional. The note with it: time 4 day.
Data set [15] deals with Staphylococcus aureus. Briefly: In vivo antibacterial activity against methicilin-resistant Staphylococcus aureus ATCC33591 infected in BALB/c mouse skin infection model assessed as reduction in skin lesions at 10 mg/kg administered daily for 4 days (reference value: 51.6 mm2). Format: functional. To be noted: time 4 day.
Data set [16] deals with Staphylococcus aureus. Briefly: Antimicrobial activity against methicillin-susceptible Staphylococcus aureus ATCC29213 measured after 24 hrs by CLSI protocol based microdilution method. The data set is classed as functional.
Data set [17] relates to Staphylococcus aureus. Briefly: In vivo antibacterial activity against methicilin-resistant Staphylococcus aureus ATCC33591 infected in BALB/c mouse skin infection model assessed as restoration of cell morphology at 20 mg/kg administered daily for 4 days by H and E staining based analysis. The data set is classed as functional, organism-based. The note with it: time 4.0 day.

The subject of data set [18] is Staphylococcus aureus. Briefly: In vivo antibacterial activity against methicilin-resistant Staphylococcus aureus ATCC33591 infected in BALB/c mouse skin infection model assessed as decrease in lesion size at 20 mg/kg administered daily for 4 days (reference value: 43.4 mm2). Format: functional. The note with it: time 4 day.
For data set [19], the system named is Staphylococcus aureus. Briefly: In vivo antibacterial activity against methicilin-resistant Staphylococcus aureus ATCC33591 infected in BALB/c mouse skin infection model assessed as as appearance of inflammatory cell infiltrates at 10 mg/kg administered daily for 4 days by H and E staining based analysis. Format: functional, organism-based. To be noted: time 4.0 day.

The subject of data set [20] is Staphylococcus aureus. Briefly: In vivo antibacterial activity against methicilin-resistant Staphylococcus aureus ATCC33591 infected in BALB/c mouse skin infection model assessed as alleviation of skin lesions at 10 mg/kg administered daily for 4 days by H and E staining based analysis. The data set is classed as functional, organism-based. To be noted: time 4.0 day.

Data set [21] relates to Staphylococcus aureus. Briefly: In vivo antibacterial activity against methicilin-resistant Staphylococcus aureus ATCC33591 infected in BALB/c mouse skin infection model assessed as log reduction in bacterial count at 10 mg/kg administered daily for 4 days. The data set is classed as functional. The note with it: time 4 day.
Data set [22] has as its system Staphylococcus aureus. Briefly: In vivo antibacterial activity against methicilin-resistant Staphylococcus aureus ATCC33591 infected in BALB/c mouse skin infection model assessed as adverse effect at 5 to 20 mg/kg administered daily for 4 days. The data set is classed as functional, organism-based. To be noted: dose 5-20 mg/kg, time 4.0 day.
Data set [23] can be described thus: Acute toxicity in female BALB/c mouse assessed as effect on AST level in serum at 800 mg/kg, po measured after 14 days. Format: organism-based. To be noted: in vivo, 336 h, time 14 day.
For data set [24], the system named is Staphylococcus aureus. Briefly: In vivo antibacterial activity against methicilin-resistant Staphylococcus aureus ATCC33591 infected in BALB/c mouse skin infection model assessed as reduction in bacterial load at 20 mg/kg administered daily for 4 days. Format: functional. To be noted: time 4 day.
Data set [25] deals with Staphylococcus aureus. Briefly: In vivo antibacterial activity against methicilin-resistant Staphylococcus aureus ATCC33591 infected in BALB/c mouse skin infection model assessed as effect on body weight loss at 5 to 20 mg/kg administered daily for 4 days. Format: functional, organism-based. The note with it: dose 5-20 mg/kg, time 4.0 day.
Data set [26] deals with Staphylococcus aureus. Briefly: Antimicrobial activity against methicillin-susceptible Staphylococcus aureus ATCC25923 measured after 24 hrs by CLSI protocol based microdilution method. The data set is classed as functional. For orientation: In broth dilution the organism is exposed to a series of concentrations in liquid medium.

As for `Cc1c(Br)cccc1N1CC(c2nc3ccccc3n2C)CC1=O` (centres undefined), in data set [1], the solubility at 24 h is 388 µg/mL (≈ 1010 µM). Also, the hemolysis at 1 h, 128 ug/ml in data set [2] came to 5%. In addition, the CL/F in data set [3] was 26.7 mL/min/kg. In addition, the MIC in data set [4] is more than 32 µg/mL; in data set [16] it was 1 µg/mL (≈ 2.6 µM); in data set [26] it was 1 µg/mL (≈ 2.6 µM). For the same compound, the “log(activity)” value in data set [5] was -4.5; in [14] it was -1.8; in [21] it was 4.9; in data set [24], -6.2. Further, the Activity in data set [6] is 31.1 mm2; in data set [8], 20.9 mm2; in data set [11] it was “Dose-Dependent Effect”; in [15], 27.5 mm2; in data set [18], 13 mm2; in data set [23], “Non-Toxic”. In addition, the outcome in data set [7], in data set [12], in data set [13], in [17], in data set [19] and in data set [20] was Active. In addition, the ΔTm in [9] amounted to 11.8 °C. For the same compound, the Cmax in data set [10] stood at 1520 ng/mL. Further, the result in data set [22] and in data set [25] was inactive.

Regarding `COc1c(Br)cccc1N1CC(c2nc3ccccc3n2C)CC1=O` (centres undefined), the concentration in solution in data set [1] (solubility at 24 h) was 467 µg/mL (≈ 1170 µM). Further, the hemolysis at 1 h, 128 ug/ml in [2] worked out at 3.4%. The CL/F in [3] is 86.7 mL/min/kg. Besides, the MIC in [4] was more than 32 µg/mL; in [16] it was 1 µg/mL (≈ 2.5 µM); in [26], 2 µg/mL (≈ 5 µM). This compound also yielded a Cmax in [10] of 1270 ng/mL. In data set [23], the Activity result is given as “Non-Toxic”.

What is called solubility is the dissolved amount per volume that the medium holds. A higher solubility goes with much dissolved substance. What is called CL/F is the apparent clearance, not corrected for the fraction that reaches the circulation. By MIC is commonly meant the smallest concentration in the dilution series that meets the test's criterion for growth inhibition. By ΔTm is commonly meant the change in melting temperature against a reference sample. Broadly, the Cmax is the highest concentration seen after dosing.

For the origin of these results see ChEMBL document CHEMBL5500393, “Discovery and Optimization of Novel SaFabI Inhibitors as Specific Therapeutic Agents for MRSA Infection” (J Med Chem, 2024).
